Where two headings read alike, the source gives them in different places.

The values that follow come from patent publication US20030013883A1, “Tropane analogs binding to monoamine transporters” (priority 2000, published 2003).

In series [1] the target is T1, norepinephrine transporter (NET) (Rattus norvegicus, UniProt Q63380).
T1 construct: from tissue; host or cells: rat cerebral cortex
Description: Radioligand binding to norepinephrine transporter, [3H]nisoxetine, rat cerebral cortex homogenate. The source says: (§1) 30: 89-92, 1990; Andersen, P. H., J. Neurochem. 48:1887-1896, 1987).

Series [2] concerns the target dopamine transporter (DAT) (Rattus norvegicus, UniProt P23977). Nature of the series: Radioligand binding to dopamine transporter, [3H]GBR-12935, rat corpus striatum homogenate.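 Also: displacement read as filter-bound tritium by liquid scintillation counting, roughly 1 mg wet tissue per tube, IC50 from fitted concentration-inhibition curves.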
Description: For DAT assays, corpus striatum tissue from rat forebrain was rapidly dissected on ice, pooled, weighed, and homogenized at 30 mg/mL in cold DAT buffer (50 mM Tris citrate, pH 7.4, 120 mM NaCl, 4 mM MgCl2) and stored at −70° C. The pellet was suspended in the assay buffer to provide the equivalent of about 1 mg of wet weight per assay tube.
L=400 pM) and 1.0 μM GBR-12909 (Research Biochemicals International, Natick, Mass.) as blank (Kula, N. S. et al., Neuropharmacology.
Assay tubes were incubated at room temperature for 120 min (SERT) or on ice for 180 min (NET) or 45 min (DAT). Labeled tissue samples were recovered in a Brandel Cell Harvester on glass fiber filter sheets saturated with 0.3% (v/v) aqueous polyethyleneimine, washed with ice-cold 0.9% NaCl, and counted for tritium in a liquid scintillation counter. Concentration-inhibition curves were computer-fit to determine IC50±SEM and converted to Ki values in nM from the Cheng -Prusoff relationship Ki=IC50/(1+[L]/Kd).
Series [3] addresses T2, serotonin transporter (SERT) (Rattus norvegicus, UniProt P31652).
T2 construct: For SERT and NET assays, rat cerebral cortex was homogenized in cold SERT assay buffer; from tissue; host or cells: rat cerebral cortex
Nature of the series: Radioligand binding to serotonin transporter, [3H]paroxetine, rat cerebral cortex homogenate. As to conditions: for Selectivity for SERT: ratio of Ki for NET or DAT to that for SERT (values match DAT/SERT), larger number is more selective for SERT.
Source text: as §1

Where [4] appears, read: rat cerebral cortex membranes, [3H]nisoxetine 600 pM, on ice 180 min, Ki from IC50 by Cheng-Prusoff, read-out: NET (Ki).
[5] abbreviates: read-out: DAT (Ki), rat corpus striatum membranes, [3H]GBR-12935 400 pM, on ice 45 min, Ki from IC50 by Cheng-Prusoff.
Setting [6] is: rat cerebral cortex membranes, [3H]paroxetine 200 pM, room temperature 120 min, Ki from IC50 by Cheng-Prusoff, read-out: SERT (Ki).

T2 sequence (P31652 whole entry): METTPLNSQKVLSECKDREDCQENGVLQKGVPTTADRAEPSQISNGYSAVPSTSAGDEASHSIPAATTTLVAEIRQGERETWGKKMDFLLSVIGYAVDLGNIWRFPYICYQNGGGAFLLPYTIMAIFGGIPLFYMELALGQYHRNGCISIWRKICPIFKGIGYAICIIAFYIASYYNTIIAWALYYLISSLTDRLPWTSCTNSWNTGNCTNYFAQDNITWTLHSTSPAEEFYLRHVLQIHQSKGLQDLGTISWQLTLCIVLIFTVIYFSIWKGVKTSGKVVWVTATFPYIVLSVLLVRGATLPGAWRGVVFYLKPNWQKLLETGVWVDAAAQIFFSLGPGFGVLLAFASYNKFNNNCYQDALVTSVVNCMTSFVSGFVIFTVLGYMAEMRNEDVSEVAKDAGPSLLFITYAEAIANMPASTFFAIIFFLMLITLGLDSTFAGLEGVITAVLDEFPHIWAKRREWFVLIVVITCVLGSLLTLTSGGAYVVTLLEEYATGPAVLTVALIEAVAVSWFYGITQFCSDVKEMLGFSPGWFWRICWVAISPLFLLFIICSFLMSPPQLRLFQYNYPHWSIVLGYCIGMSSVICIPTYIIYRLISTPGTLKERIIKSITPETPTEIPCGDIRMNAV
T1 sequence (Q63380 1-617): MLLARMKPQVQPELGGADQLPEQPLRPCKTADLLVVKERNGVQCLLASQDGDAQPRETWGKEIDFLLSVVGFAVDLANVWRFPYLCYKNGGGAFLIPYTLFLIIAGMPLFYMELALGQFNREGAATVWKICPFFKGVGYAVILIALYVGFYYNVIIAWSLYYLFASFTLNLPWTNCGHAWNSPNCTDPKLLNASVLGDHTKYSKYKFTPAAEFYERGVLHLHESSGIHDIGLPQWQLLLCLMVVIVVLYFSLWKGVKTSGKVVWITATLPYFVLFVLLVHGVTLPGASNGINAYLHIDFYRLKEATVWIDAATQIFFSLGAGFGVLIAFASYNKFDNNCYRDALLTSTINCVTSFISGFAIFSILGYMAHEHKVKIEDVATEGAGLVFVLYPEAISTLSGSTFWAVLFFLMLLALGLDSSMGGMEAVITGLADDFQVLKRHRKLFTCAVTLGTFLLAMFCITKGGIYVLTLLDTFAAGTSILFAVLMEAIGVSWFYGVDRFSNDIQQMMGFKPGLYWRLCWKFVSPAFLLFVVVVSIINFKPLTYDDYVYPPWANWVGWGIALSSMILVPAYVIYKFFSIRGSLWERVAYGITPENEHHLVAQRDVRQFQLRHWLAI
Sequence of dopamine transporter (DAT) (P23977 whole entry): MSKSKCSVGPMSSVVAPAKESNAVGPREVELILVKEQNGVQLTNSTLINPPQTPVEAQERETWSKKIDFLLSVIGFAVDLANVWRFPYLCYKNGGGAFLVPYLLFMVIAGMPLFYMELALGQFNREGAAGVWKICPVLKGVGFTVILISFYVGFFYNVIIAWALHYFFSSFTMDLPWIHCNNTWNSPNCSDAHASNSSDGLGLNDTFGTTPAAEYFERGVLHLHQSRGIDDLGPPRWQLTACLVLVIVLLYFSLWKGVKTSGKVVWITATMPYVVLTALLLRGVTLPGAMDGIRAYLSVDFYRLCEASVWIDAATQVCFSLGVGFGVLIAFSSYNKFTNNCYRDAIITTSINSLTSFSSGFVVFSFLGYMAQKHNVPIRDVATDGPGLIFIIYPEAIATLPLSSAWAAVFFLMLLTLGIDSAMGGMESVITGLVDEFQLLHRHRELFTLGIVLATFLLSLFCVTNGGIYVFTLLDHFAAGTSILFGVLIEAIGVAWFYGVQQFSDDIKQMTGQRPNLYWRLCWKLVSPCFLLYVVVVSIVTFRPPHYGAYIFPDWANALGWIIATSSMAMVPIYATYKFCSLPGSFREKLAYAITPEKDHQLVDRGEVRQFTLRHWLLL

On to `COC(=O)C1C(c2ccc(-c3cccc(O)c3)cc2)CC2CCC1N2C` (centres unmarked) [Compound 2], for which the Ki in series [1] (setting [4]) amounted to 155 nM; in series [2] (setting [5]), 15.2 nM.

In the case of `COC(=O)C1C(c2ccc(-c3ccccc3OC)cc2)CC2CCC1N2C` (centres unmarked) [Compound 3a], the Ki in series [1] (setting [4]) was more than 10000 nM; in series [2] (setting [5]), 357 nM.

As for `COC(=O)C1C(c2ccc(-c3cccc(OC)c3)cc2)CC2CCC1N2C` (centres unmarked) [Compound 3b], the results for the Ki in series [1] (setting [4]), in series [2] (setting [5]) and in series [3] (setting [6]) were more than 3000 nM, 58.7 nM and 1.89 nM, respectively. Besides, the “Selectivity for SERT” value in series [3] is listed as 31.1.

For the compound `COC(=O)C1C(c2ccc(-c3ccc(OC)cc3)cc2)CC2CCC1N2C` (centres unmarked) [Compound 3c], the figures for the Ki in series [1] (setting [4]), in series [2] (setting [5]) and in series [3] (setting [6]) were 352 nM, 13.2 nM and 32 nM, respectively. In addition, the “Selectivity for SERT” value in series [3] was found to be 0.41.

For the compound `COC(=O)C1C(c2ccc(-c3ccccc3[N+](=O)[O-])cc2)CC2CCC1N2C` (centres unmarked) [Compound 4a], the Ki in series [1] (setting [4]) was more than 3000 nM. In series [3], the “Selectivity for SERT” value worked out at 1.

As to `COC(=O)C1C(c2ccc(-c3cccc([N+](=O)[O-])c3)cc2)CC2CCC1N2C` (centres unmarked) [Compound 4b], the Ki in series [1] (setting [4]) stood at 963 nM; in series [2] (setting [5]), 9.54 nM; in series [3] (setting [6]), 0.8 nM. Besides, in series [3], the “Selectivity for SERT” value is listed as 11.9.

Consider `COC(=O)C1C(c2ccc(-c3ccc([N+](=O)[O-])cc3)cc2)CC2CCC1N2C` (centres unmarked) [Compound 4c], for which the Ki in series [1] (setting [4]) was determined as 370 nM; in series [2] (setting [5]) it was 5.1 nM; in series [3] (setting [6]) it was 29.7 nM. For the same compound, the “Selectivity for SERT” value in series [3] amounted to 0.17.

Consider `COC(=O)C1C(c2ccc(-c3cccc(N)c3)cc2)CC2CCC1N2C` (centres unmarked) [Compound 5], for which the figures for the Ki in series [1] (setting [4]) and in series [2] (setting [5]) were 661 nM and 24.2 nM, respectively.

For `COC(=O)C1C(c2ccc(-c3ccccc3C(C)=O)cc2)CC2CCC1N2C` (centres unmarked) [Compound 6a], the results for the Ki in series [1] (setting [4]) and in series [2] (setting [5]) were more than 20000 nM and 1020 nM, respectively.

`COC(=O)C1C(c2ccc(-c3cccc(C(C)=O)c3)cc2)CC2CCC1N2C` (centres unmarked) [Compound 6b]: the Ki in series [1] (setting [4]) was more than 50000 nM; in series [2] (setting [5]), 12.4 nM.

On to `COC(=O)C1C(c2ccc(-c3ccc(C(C)=O)cc3)cc2)CC2CCC1N2C` (centres unmarked) [Compound 6c], for which the Ki in series [1] (setting [4]) is 754 nM; in series [2] (setting [5]), 19.1 nM.

Regarding `COC(=O)[C@H]1[C@@H](c2ccc(-c3cccc(CNC(=O)OC(C)(C)C)c3)cc2)C[C@@H]2CC[C@H]1N2C` [Compound 7, 3β-[3′-(tert-Butoxycarbonylaminomethyl)biphenyl-4-yl]-Tropane-2β-carboxylic acid methyl ester], the results for the Ki in series [1] (setting [4]), in series [2] and in series [3] (read-out: SERT (Ki)) were more than 30000 nM, more than 10000 nM and more than 10000 nM, respectively. In addition, the “Selectivity for SERT” value in series [3] stood at 1.

For `COC(=O)C1C(c2ccc(-c3cccc(C(=O)c4ccccc4)c3)cc2)CC2CCC1N2C` (centres unmarked) [Compound 8], the Ki in series [1] (setting [4]), in series [2] and in series [3] (read-out: SERT (Ki)) was more than 3000 nM in each case. Moreover, in series [3], the “Selectivity for SERT” value was determined as 1.

Regarding `COC(=O)C1C(c2ccc(-c3cccc(C4OCCO4)c3)cc2)CC2CCC1N2C` (centres unmarked) [Compound 9], the Ki in series [1] (setting [4]) was more than 30000 nM; in series [2], 363 nM; in series [3] (read-out: SERT (Ki)), more than 10000 nM. Moreover, the “Selectivity for SERT” value in series [3] is given as 0.03.

`COC(=O)C1C2CCC(CC1c1ccc(-c3cccc(OC)c3)cc1)N2` (stereo not drawn) [Compound 10, 3β-(3′-methoxybiphenyl-4-yl)nortropane-2β-carboxylic acid methyl ester] yielded a melting point of 102 to 104 °C. Moreover, the Ki in series [1] (setting [4]) came to 295 nM. The compound further displayed a Ki in series [2] of 710 nM. The “Selectivity for SERT” value in series [3] turned out to be 306. The Ki in series [3] (read-out: SERT (Ki)) is 2.32 nM.

On to `COC(=O)[C@H]1[C@@H](c2ccc(-c3cccs3)cc2)C[C@@H]2CC[C@H]1N2C` [Compound 11, 3β-(4-Thiophen-2-yl-phenyl)tropane-2β-carboxylic acid methyl ester], for which the Ki in series [1] stood at 158 nM; in series [2], 52 nM; in series [3], 0.15 nM. In addition, in series [3], the “Selectivity for SERT” value is given as 346.

For the compound `COC(=O)[C@H]1[C@@H](c2ccc(-c3ccsc3)cc2)C[C@@H]2CC[C@H]1N2C` [Compound 12, 3β-(4-Thiophen-3-yl-phenyl)tropane-2β-carboxylic acid methyl ester], the Ki in series [1] was found to be 189 nM; in series [2] it was 12.1 nM; in series [3], 0.17 nM. Also, the “Selectivity for SERT” value in series [3] was 711.

For the compound `COC(=O)C1C(c2ccc(-c3ccco3)cc2)CC2CCC1N2C` (centres unmarked) [Compound 13], the Ki in series [1] was determined as 1400 nM; in series [2] (setting [5]), 7.14 nM; in series [3] (setting [6]), 1.13 nM. Besides, the “Selectivity for SERT” value in series [3] was found to be 6.32.

As to `COC(=O)[C@H]1[C@@H](c2ccc(-c3nccs3)cc2)C[C@@H]2CC[C@H]1N2C` [Compound 14, 3β-(4-Thiazol-2-yl-phenyl)tropane-2β-carboxylic acid methyl ester], the Ki is more than 10000 nM in series [1], 520 nM in series [2] and 1.67 nM in series [3]. The “Selectivity for SERT” value in series [3] was found to be 310.

On to `COC(=O)C1C(c2ccc(-c3ccccn3)cc2)CC2CCC1N2C` (centres unmarked) [Compound 15], for which the Ki in series [1] (setting [4]) was not below 10000 nM; in series [2] (setting [5]) it was 44 nM; in series [3] (setting [6]), 161 nM. Also, the “Selectivity for SERT” value in series [3] is recorded as 0.27.

Take `COC(=O)C1C(c2ccc(-c3cccnc3)cc2)CC2CCC1N2C` (centres unmarked) [Compound 16]: the figures for the inhibitory constant (Ki) in series [1] (setting [4]), in series [2] and in series [3] (setting [6]) were 1410 nM, 26.5 nM and 3.54 nM, respectively. For the same compound, the “Selectivity for SERT” value in series [3] amounted to 7.3.

As for `COC(=O)C1C2CCC(CC1c1ccc(-c3cncc(OC)c3)cc1)N2` (stereo not drawn) [Compound 18, 3β-[4-(5′-Methoxypyridin-3-yl)-phenyl]nortropane-2β-Carboxylic Acid Methyl Ester], the Ki in series [1] (setting [4]) was determined as 1590 nM; in series [2], 587 nM; in series [3] (read-out: SERT (Ki)), 3.91 nM. For the same compound, the “Selectivity for SERT” value in series [3] came to 150.

With `COC(=O)C1C(c2ccc(-c3cncnc3)cc2)CC2CCC1N2C` (centres unmarked) [Compound 19], the Ki is more than 10000 nM in series [1] (setting [4]), 344 nM in series [2] (setting [5]) and 33.1 nM in series [3] (setting [6]). Moreover, the “Selectivity for SERT” value in series [3] was 10.4.

Turning to `COC(=O)C1C(c2ccc(-c3cnc4ccccc4c3)cc2)CC2CCC1N2C` (centres unmarked) [Compound 20], the Ki in series [1] (setting [4]) was more than 3000 nM; in series [2] (setting [5]), 59.8 nM; in series [3] (setting [6]), 20 nM. Further, the “Selectivity for SERT” value in series [3] was determined as 3.0.

Take `COC(=O)C1C(c2ccc(-c3cncc4ccccc34)cc2)CC2CCC1N2C` (centres unmarked) [Compound 21]: the Ki in series [1] (setting [4]) is more than 10000 nM; in series [2] it was more than 30000 nM. In addition, the “Selectivity for SERT” value in series [3] is 10.
